Test results: patent publication US5736556A, “Tropane-2-aldoxime derivatives as nevro transmitter reuptake inhibitors” (NeuroSearch A/S, priority 1994, dated 1998)
Where a name gives a salt, the structure may show the parent alone.

Legend:
dopamine transporter [1] = molecular target: T1, dopamine transporter (Rattus norvegicus, UniProt P23977); assay: In vitro inhibition of ^3 H-WIN 35428 binding (corpus striatum); design: species or system rat (male Wistar); settings: rat corpus striatum, ^3 H-WIN 35428 1 nM, 60 min at 2° C.; read-out: in vitro IC50
T1 construct: Corpus striatum from male Wistar rats (150-200 g) is homogenized; from tissue; host or cells: corpus striatum of male Wistar rats
Text: The compounds of the present invention have been tested for their ability to bind to the dopamine transporter in the following tests for in vitro and in vivo inhibition of ^3 H-WIN 35428.
In vitro inhibition of ^3 H-WIN 35428 binding
Dopamine transporters/uptake sites on nerve terminals presumably function to terminate neuronal signaling by removing dopamine from the synaptic cleft. The activity or presence of the dopamine transporter integral protein can be measured in vitro with synaptosomal uptake of ^3 H-dopamine or membrane binding assays with ^3 H-ligands known to bind to the transporter.
Numerous ligands of several structural types have been reported to bind at the dopamine uptake site, but it remains questionable whether their binding sites are identical to that of cocaine.
Tissue preparation: Preparations are performed at 0°-4° C. unless otherwise indicated. Corpus striatum from male Wistar rats (150-200 g) is homogenized for 5-10 sec in 10 ml NaH2 PO4 (50 mM, pH 7.4) using an Ultra-Turrax homogenizer. The suspension is centrifuged at 27,000×g for 15 min. The supernatant is discarded and the pellet is resuspended in 50 mM NaH2 PO4, pH 7.4 (1000 ml per g of original tissue) and used for binding assays.
Assay: Aliquots of 0.5 ml tissue are added to […] of ^3 H-WIN 35428 (1 nM, final concentration), mixed and incubated for 60 min at 2° C. Non-specific binding is determined using cocaine ([…], final concentration). After incubation the samples are added 5 ml of ice-cold buffer and poured directly onto Whatman GF/C glass fibre filters under suction and immediately washed with 5 ml ice-cold buffer. The amount of radioactivity on the filters is determined by conventional liquid scintillation counting. Specific binding is total binding minus non-specific binding.
25-75% inhibition of specific binding must be obtained, before calculation of an IC50. The test value is given as IC50 (the concentration (μM) of the test substance which inhibits the specific binding of ^3 H-WIN 35428 by 50%).

[2] = molecular target: T2, dopamine transporter (^3 H-dopamine uptake) (Rattus norvegicus, UniProt P23977); assay: In vitro inhibition of ^3 H-dopamine (^3 H-DA) uptake in striatal synaptosomes; assay type: biochemical, rat (male Wistar); settings: ^3 H-DA 1 nM, 25 min at 37° C.
T2 construct: Corpi striati from male Wistar rats (150-200 g) are homogenized; from tissue; host or cells: P2 synaptosomes of corpus striatum, male Wistar rats
Text: The compounds of the invention have also been tested for their ability to inhibit reuptake of dopamine(DA) noradrenalin(NA) and serotonin(5-HT) in synaptosomes.
Specific neurotransmitter transporters/uptake sites on nerve terminals presumably function to terminate neuronal signaling by removing the neurotransmitters dopamine, noradrenaline and serotonin, respectively, from the synaptic cleft. The activity of the transporter integral proteins can be measured in vitro by synaptosomal uptake of ^3 H-dopamine, ^3 H-noradrenaline and ^3 H-serotonine, respectively.
In vitro inhibition of ^3 H-dopamine (^3 H-DA) uptake in striatal synaptosomes
Tissue preparations: Preparations are performed at 0°-4° C. unless otherwise indicated. Corpi striati from male Wistar rats (150-200 g) are homogenized for 5-10 sec in 100 volumes of ice-cold 0.32M sucrose containing 1 mM pargyline using an Ultra-Turrax homogenizer. Monoamine oxidase activity will be inhibited in the presence of pargyline. The homogenate is centrifuged at 1000×g for 10 min. The resulting supermatant is then centrifuged at 27,000×g for 50 min and the supernatant is discarded. The pellet (P2) is resuspended in oxygenated (equilibrated with an atmosphere of 96% O2 : 4% CO2 for at least 30 min) Krebs-Ringer incubation buffer (8000 ml per g of original tissue) at pH 7.2 containing 122 mM NaCl, 0.16 mM EDTA, 4.8 mM KCl, 12.7 mM Na2 HPO4, 3.0 mM NaH2 PO4, 1.2 mM MgSO4, 1 mM CaCl2, 10 mM glucose and 1 mM ascorbic acid.
Assay: Aliquots of 4.0 ml tissue suspension are added to 100 μl of test solution and 100 μl of ^3 H-DA (1 nM, final concentration), mixed and incubated for 25 min at 37° C. Non-specific uptake is determined using benztropine (10 μM, final concentration). After incubation the samples are poured directly onto Whatman GF/C glass fibre filters under suction. […] The amount of radioactivity on the filters is determined by conventional liquid scintillation counting. Specific uptake is calculated as the difference between total uptake and non-specific uptake. […]

[3] = tested on: immobility time of mice suspended by the tail; assay: Tail Suspension; assay type: in vivo, mice (female NMRI); settings: Mus musculus, 0.5 h, oral, 30 min before test, dose reducing the immobility to 100 sec
Procedure: A decrease in the immobility time by mice suspended in their tail is seen after systemic administration of central stimulants and by antidepressants (Steru, L., Chermat, R., Thierry, B. & Simon, P. (1985) The tail suspension test: A new method for screening antidepressants in mice. Psychopharmacology 85:367-370.).
Female NMRI mice (20-25 g) habituated to the room (12 hours light/dark) for at least 16 hours and housed 25 per cage are used. The mice are suspended by the tail with adhesive tape to a rod 30 cm above the lab. bench 30 min after an oral administation of vehicle or drug. For the next 6 min the accumulated duration of immobility defined as no movements by the body or extremities (however head movements are not defined as movements) are noted, Six mice per dose are used.
Saline or vehicle treated mice have immobility time scores between 160-180 sec in average. An ED50 -value is calculated by graphical interpolation from at least 3 doses as the dose reducing the immobility to 100 sec.

dopamine transporter [4] = molecular target: dopamine transporter (Mus musculus, UniProt Q61327); assay: In vivo inhibition of ^3 H-WIN 35428 binding (striatum); design: from tissue; host or cells: striatum of living female NMRI mice; species or system mice (female NMRI); settings: ip, mice, inhibition of specific ^3 H-WIN 35428 binding in striatum
Procedure: All test substances used are solutions or suspensions prepared in 10% TWEEN 80. Groups of three female NMRI mice (25 g) are injected i.p. with the test substance. […] Tissues are weighed and dissolved for 36 h with 1 ml 2% sodium-laurylsulfat. The solubilized tissue is then added 2 ml of scintillation cocktail, and the amount of radioactivity per mg of tissue is counted by conventional liquid scintillation counting. Groups of untreated mice serves as controls.
The ED50 value is determined from dose response curves.
ED50 =(administered dose, mg/kg)×1/(C0 /Cx -1), where C0 is specific binding in controls and Cx is the specific binding in mice treated with test substance.

T2 sequence (P23977 whole entry): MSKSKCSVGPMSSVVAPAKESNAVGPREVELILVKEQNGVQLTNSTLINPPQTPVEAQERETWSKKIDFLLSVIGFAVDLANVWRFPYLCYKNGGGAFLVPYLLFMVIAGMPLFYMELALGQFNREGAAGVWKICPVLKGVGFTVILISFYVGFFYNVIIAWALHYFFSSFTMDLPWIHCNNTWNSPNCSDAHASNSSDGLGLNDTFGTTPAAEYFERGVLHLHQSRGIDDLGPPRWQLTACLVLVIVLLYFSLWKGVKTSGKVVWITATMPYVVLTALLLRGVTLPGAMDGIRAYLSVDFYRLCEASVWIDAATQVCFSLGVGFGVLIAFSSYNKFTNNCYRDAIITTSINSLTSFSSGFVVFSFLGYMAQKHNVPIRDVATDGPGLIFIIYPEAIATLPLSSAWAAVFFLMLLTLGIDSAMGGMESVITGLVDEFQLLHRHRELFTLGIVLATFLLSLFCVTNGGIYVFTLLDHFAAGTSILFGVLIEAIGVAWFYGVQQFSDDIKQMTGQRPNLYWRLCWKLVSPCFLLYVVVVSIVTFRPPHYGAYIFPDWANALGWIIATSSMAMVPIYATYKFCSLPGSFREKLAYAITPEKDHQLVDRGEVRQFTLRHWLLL
T1 sequence (P23977 whole entry): as above
Chain of dopamine transporter (Mus musculus, UniProt Q61327) (Q61327 whole entry): as the sequence (P23977 whole entry) above, with S21P, A57V, A194S, H600R, L619V counted along it

Row | Compound | IC50 (dopamine transporter [1]) | IC50 [2] | ED50 [3] | ED50 (dopamine transporter [4])
1 | CON=C[C@@H]1[C@@H](c2ccc(Cl)c(Cl)c2)C[C@@H]2CC[C@H]1N2C [(1R,2R,3S)-3-(3,4-dichlorophenyl)-tropane-2-O-methyl-aldoxime, H2 SO4] | 3 nM | 3 nM | 0.1 mg/kg | 0.9 mg/kg
2 | CON=C[C@@H]1[C@@H](c2ccc(Cl)c(Cl)c2)C[C@@H]2CC[C@H]1N2 [(1R,2R,3S)-N-Normethyl-3-(3,4-dichlorophenyl)tropane-2-O-methyl-aldoxime, hydrochloride] | 6 nM | 2 nM | 0.95 mg/kg | 1.4 mg/kg
